Measured values as given in US20030170250A1, “Local delivery of long lasting therapeutic agents” (priority 1998, published 2003).

Test system: carotid artery
Test: In vivo addition of NHS-Rhodamine: local incubation in isolated carotid artery chamber, fluorescence of the artery
Parameters: species or system New Zealand rabbits
Conditions: 100 μl of 500 μM, 3 minutes incubation in 1-cm chamber, washed with 0.9% sodium chloride
Method: Both carotid arteries were isolated and blood flows were measured. A catheter (22G) was inserted in the arterial segment and rinsed with 0.9% sodium chloride via catheter until there was no more visible evidence of blood in the segment.
A 1-cm incubation chamber was created by ligatures in the segment area. The incubation chamber was flushed three times with 1 mL of 0.9% sodium chloride. A solution of 100 μl of 500 μM NHS-Rhodamine was prepared and incubated in the incubation chamber for 3 minutes. The excess of rhodamine was withdrawn with a 1 mL syringue. The incubation chamber was washed once again with 3 times […] of 0.9% sodium chloride. The incubation chamber was then removed from the rabbit, cut in three pieces and dipped in 10% formalin for further evaluation.

Rhodamine Green™-X, succinimidyl ester, hydrochloride mixed isomers [NHS-Rhodamine]
fluorescence of treated arteries: dramatic levels of fluorescence

Rhodamine
fluorescence of treated arteries: little fluorescence over background
